Patent publication US9073874B2, “Cyclic N,N′-diarylthioureas and N,N′-diarylureas-androgen receptor antagonists, anticancer agent, method for preparation and use thereof” (priority 2010, dated 2015)

Columns and labels:
ER (non-selective) (h) = test: competitive radioligand binding assay, ER (non-selective) (h) (agonist radioligand); design: species or system human; conditions: 10 μM
SKCa channel = test: competitive radioligand binding assay, SKCa channel (antagonist radioligand); conditions: 10 μM
GABA transporter = test: competitive radioligand binding assay, GABA transporter (antagonist radioligand); conditions: 10 μM
AMPA = test: competitive radioligand binding assay, AMPA (agonist radioligand); conditions: 10 μM
V1 a (h) = V1 a (h) (Homo sapiens, UniProt P37288); test: competitive radioligand binding assay, V1 a (h) (agonist radioligand)
V1 a (h), sequence (P37288 whole entry): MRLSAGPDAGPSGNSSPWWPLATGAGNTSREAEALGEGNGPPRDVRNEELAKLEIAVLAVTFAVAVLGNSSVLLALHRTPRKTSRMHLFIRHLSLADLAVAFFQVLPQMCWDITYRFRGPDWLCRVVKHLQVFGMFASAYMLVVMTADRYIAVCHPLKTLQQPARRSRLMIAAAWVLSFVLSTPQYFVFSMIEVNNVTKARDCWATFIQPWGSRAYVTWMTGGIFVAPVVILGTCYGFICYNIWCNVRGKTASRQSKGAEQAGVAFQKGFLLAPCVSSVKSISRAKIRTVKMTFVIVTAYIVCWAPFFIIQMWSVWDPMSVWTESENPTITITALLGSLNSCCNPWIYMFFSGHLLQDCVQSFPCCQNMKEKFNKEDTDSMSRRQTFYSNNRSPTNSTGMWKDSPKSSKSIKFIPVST

AT1 (h) = AT1 (h) (Homo sapiens, UniProt P30556); test: competitive radioligand binding assay, AT1 (h) (antagonist radioligand)
AT1 (h), sequence (P30556 whole entry): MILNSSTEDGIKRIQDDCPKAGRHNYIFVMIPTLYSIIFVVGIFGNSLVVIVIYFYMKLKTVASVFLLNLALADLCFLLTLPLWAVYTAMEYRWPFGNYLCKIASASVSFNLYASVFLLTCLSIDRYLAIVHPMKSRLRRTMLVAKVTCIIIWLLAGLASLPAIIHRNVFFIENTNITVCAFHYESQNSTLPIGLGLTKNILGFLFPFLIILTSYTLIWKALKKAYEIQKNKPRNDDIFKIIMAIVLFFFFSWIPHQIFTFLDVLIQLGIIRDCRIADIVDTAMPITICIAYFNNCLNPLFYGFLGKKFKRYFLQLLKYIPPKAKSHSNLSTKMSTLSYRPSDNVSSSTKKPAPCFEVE

β1 (h) = β1 (h) (Homo sapiens, UniProt P08588); test: competitive radioligand binding assay, β1 (h) (agonist radioligand)
β1 (h), sequence (P08588 whole entry): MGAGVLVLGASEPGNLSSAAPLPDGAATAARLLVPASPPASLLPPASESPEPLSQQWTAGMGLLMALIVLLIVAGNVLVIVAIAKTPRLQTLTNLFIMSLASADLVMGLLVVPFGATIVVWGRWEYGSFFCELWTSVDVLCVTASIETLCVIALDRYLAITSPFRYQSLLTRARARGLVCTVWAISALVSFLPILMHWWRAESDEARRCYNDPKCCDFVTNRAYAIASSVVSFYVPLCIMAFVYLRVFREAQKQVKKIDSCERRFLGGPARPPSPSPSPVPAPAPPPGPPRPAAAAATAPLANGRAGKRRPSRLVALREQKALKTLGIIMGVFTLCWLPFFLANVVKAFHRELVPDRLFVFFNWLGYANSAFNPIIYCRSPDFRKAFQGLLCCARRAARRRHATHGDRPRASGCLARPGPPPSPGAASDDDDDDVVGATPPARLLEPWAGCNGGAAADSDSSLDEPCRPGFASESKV

androgen receptors = target: T1, androgen receptors (Homo sapiens, UniProt P10275, T878A); test: cell-based; type: cell-based
T1 construct: host or cells: LNCaP
T1 sequence (P10275 1-920 T878A): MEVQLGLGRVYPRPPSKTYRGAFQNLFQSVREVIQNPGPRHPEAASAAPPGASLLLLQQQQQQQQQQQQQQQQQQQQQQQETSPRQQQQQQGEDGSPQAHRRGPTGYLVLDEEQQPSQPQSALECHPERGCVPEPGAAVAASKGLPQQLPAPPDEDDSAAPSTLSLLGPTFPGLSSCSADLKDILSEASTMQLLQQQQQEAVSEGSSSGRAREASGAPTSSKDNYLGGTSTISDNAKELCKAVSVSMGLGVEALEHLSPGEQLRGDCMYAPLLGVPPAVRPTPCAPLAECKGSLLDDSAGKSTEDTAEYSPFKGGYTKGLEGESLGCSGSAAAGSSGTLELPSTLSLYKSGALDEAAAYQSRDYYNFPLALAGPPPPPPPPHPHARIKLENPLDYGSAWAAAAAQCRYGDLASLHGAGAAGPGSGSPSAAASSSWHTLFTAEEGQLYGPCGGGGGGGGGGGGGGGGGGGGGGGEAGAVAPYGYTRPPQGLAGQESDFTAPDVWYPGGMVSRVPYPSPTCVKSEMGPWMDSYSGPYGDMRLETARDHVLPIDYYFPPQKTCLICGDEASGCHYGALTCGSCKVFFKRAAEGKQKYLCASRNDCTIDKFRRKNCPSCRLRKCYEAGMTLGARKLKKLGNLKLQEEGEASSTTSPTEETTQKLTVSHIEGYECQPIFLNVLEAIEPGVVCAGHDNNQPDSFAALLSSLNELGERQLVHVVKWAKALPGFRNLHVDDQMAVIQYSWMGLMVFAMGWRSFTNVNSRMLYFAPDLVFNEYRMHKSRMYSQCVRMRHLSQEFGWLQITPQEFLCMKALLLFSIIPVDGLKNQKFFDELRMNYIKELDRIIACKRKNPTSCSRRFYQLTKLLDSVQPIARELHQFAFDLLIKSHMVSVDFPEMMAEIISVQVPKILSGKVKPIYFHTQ
Procedure: The expression of PSA was measured in the culture medium 24 hours thereafter (FIG. 1). […] The LnCAP cells were cultured for a further 5 days and the number of viable cells was then calculated.
FIG. 1. Inhibition of DHT-stimulated PSA expression in LnCAP cells.
These cells are sensitive towards 5-a-dihydrotestosterone (DHT) and in the presence thereof produce cancer markers (PSA). […] Before the experiment, the cells were washed and suspended in the same medium, in which, however, a serum treated with charcoal for removal of hormone traces was used instead of calf serum. The cells (10 000 in total) were embedded into the wells of 96-well plates at 100 μl per well and left for 4 days in an incubator at 37° C. […] The cells were incubated for a further 5 days under the same conditions. Then, samples of the supracellular medium were taken and analyzed for PSA. The test was carried out according to the protocol recommended by the manufacturer of the kit for PSA measurement (Alpha Diagnostic International, USA). After wetting the wells containing PSA antibodies attached to their bottoms, 25 μl of test compounds and 100 μl of PSA antibodies pre-conjugated to horseradish peroxidase were added successively to each well. Following a 30-minute incubation at room temperature, the content of each well was removed, the wells were washed several times, and 100 μl of a peroxidase chromogenic substrate was then added to each well. […] Based on data about the dependence of DHT-related reduction of PSA synthesis on the concentration of test compounds, dose-response curves were plotted to determine IC50 values. Said values were used for calculating apparent inhibition constants (Ki) for compounds of general formula I according to Cheng-Prusoff equation. [Cheng, Y., Prusoff, W. H. “Relationship between the inhibition constant (Ki) and the concentration of inhibitor which causes 50 percent inhibition (IC50) of an enzymatic reaction”. Biochem Pharmacol.

P2Y = test: competitive radioligand binding assay, P2Y (agonist radioligand); conditions: 10 μM
a2 (non-selective) = test: competitive radioligand binding assay, a2 (non-selective) (antagonist radioligand); conditions: 10 μM
LnCAP-Z2 tumors = test: Prostate cancer xenograft model, SCID male mice bearing LnCAP-Z2 tumors; type: in vivo; conditions: for antitumor efficacy (in words): oral
Procedure: SCID male mice bearing LnCAP-Z2 tumors (mean volume˜160-190 mm^3) were treated daily by oral gavage with vehicle or drugs for 21 days. Individual tumor volume change by the end of the study. Percentage of change in individual tumor volumes as compared to the start of treatment.
FIG. 6. […] SCID male mice bearing LnCAP-Z2 tumors (mean volume˜160-190 mm^3) treated daily by oral gavage with vehicle or drugs for 21 days. Individual tumor volume change by the end of the study. Percentage of change in individual tumor volumes compared to the start of treatment.
FIG. 7. […] SCID male mice bearing LnCAP-Z2 tumors (mean volume˜160-190 mm^3) treated daily by oral gavage with vehicle or drugs for 21 days. (A)—Tumor weight by the end of the study. Mean±SEM are presented. […] (B)—PSA expression by the end of the study. Plasma samples were collected 24 hours after the last drug administration. Mean±SEM are presented.
The antitumor efficacy of (R)-1 was tested in a xenograft model of prostate cancer (FIGS. 6 and 7). Male immunodeficient mice harboring LnCAP-Z2 tumors were treated orally for 21 days with either vehicle or (R)-1 at 20 and 50 mg/kg once daily and at 20 mg/kg twice daily. […] Twenty-four hours after last treatment, blood samples were collected from all animals and used for measuring PSA expression and drug concentration. In addition, the concentration of drugs and Ki67 expression were measured in tumor samples.

CysLT1 (LTD4) (h) = CysLT1 (LTD4) (h) (Homo sapiens, UniProt Q9Y271); test: competitive radioligand binding assay, CysLT1 (LTD4) (h) (agonist radioligand)
CysLT1 (LTD4) (h), sequence (Q9Y271 whole entry): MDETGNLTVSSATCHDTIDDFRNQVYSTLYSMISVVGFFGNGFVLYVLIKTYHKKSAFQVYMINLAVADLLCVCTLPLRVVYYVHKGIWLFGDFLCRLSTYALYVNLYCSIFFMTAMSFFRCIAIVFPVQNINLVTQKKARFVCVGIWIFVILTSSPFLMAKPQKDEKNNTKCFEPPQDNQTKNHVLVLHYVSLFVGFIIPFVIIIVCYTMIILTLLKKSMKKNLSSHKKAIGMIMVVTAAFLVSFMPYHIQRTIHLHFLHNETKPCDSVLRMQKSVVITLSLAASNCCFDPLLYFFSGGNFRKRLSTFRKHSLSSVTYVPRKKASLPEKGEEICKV

Na+ channel (site 2) = test: competitive radioligand binding assay, Na+ channel (site 2) (antagonist radioligand); conditions: 10 μM

`CNC(=O)c1ccc(N2C(=S)N(c3ccc(C#N)c(C(F)(F)F)c3)C(=O)[C@]23CCOC3)cc1F` [(R)-1, 4-[(R)-3-(4-cyano-3-trifluoromethyl-phenyl)-4-oxo-2-thioxo-7-oxa-1,3-diaza-spiro[4.4]non-1-yl]-2-fluoro-N-methyl-benzamide] was tested. Which “% Inhibition” value (ER (non-selective) (h)) did it give?
The value was −7.6%.

And the “% Inhibition” value (SKCa channel)?
Its value is −4.8%.

What about the “% Inhibition” value (GABA transporter) of the same compound?
Its value is 9.7%.

What about the “% Inhibition” value (AMPA) of the same compound?
The value was −23.0%.

What about the inhibition at 10 µM (V1 a (h)) of the same compound?
Its inhibition at 10 µM is 12.3%.

And the inhibition at 10 µM (AT1 (h))?
The inhibition at 10 µM was 0.5%.

What about the inhibition at 10 µM (β1 (h)) of the same compound?
The inhibition at 10 µM was 1.8%.

And the “AR antagonistic activity (in words)” value (androgen receptors)?
The value was “even greater AR antagonistic activity”.

What about the “fold more efficient than III in inhibiting DHT-induced PSA expression” value (androgen receptors) of the same compound?
Its value is “around 1.9 fold”.

What about the “fold more efficient than Ia in inhibiting DHT-induced PSA expression” value (androgen receptors) of the same compound?
The value was “around 1.5 fold”.

What about the “fold more potent than (S)-stereoisomer (S)-1” value (androgen receptors) of the same compound?
The value was “more than 10 fold”.

And the Ki (androgen receptors; read-out: Ki, inhibition of DHT-induced PSA expression)?
The Ki was 20 nM.

And the “% Inhibition” value (P2Y)?
Its value is 33.3%.

And the “% Inhibition” value (a2 (non-selective))?
Its value is −3.7%.

And the tumors regressed (LnCAP-Z2 tumors; 20 mg/kg twice daily, oral gavage, 21 days)?
Its tumors regressed is 4 of 8.

And the “effect on individual tumors (in words)” value (LnCAP-Z2 tumors; analysis of individual tumors, 21 days oral)?
The value was “stimulate tumor regression”.

What about the “antitumor efficacy (in words)” value (LnCAP-Z2 tumors; once daily at 20 or 50 mg/kg, 21 days) of the same compound?
The value was “comparable with Ia administered once daily at 10 mg/kg”.

What about the “antitumor efficacy (in words)” value (LnCAP-Z2 tumors; twice daily at 20 mg/kg, 21 days) of the same compound?
The value was “highest antitumor efficacy”.

And the inhibition at 10 µM (CysLT1 (LTD4) (h))?
The inhibition at 10 µM was -13.9%.

What about the “% Inhibition” value (Na+ channel (site 2)) of the same compound?
Its value is −11.6%.
